Laboratory results as given in patent publication US11071767B2, “Dietary compositions for reducing blood glucose levels and for weight management” (MARMAR INVESTMENT SP. Z O.O., priority 2014, dated 2021).

Key:
male Wistar rats [1] = assay: Glucose tolerance test in rats after single plant extracts (Example 1); assay type: in vivo, rat
Method: An experiment was conducted on 96 male Wistar rats with mean body weight of 381.2±16.6 g, bred at […] in Olsztyn. Each study group consisted of 12 rats. The animals were kept in individual cages in a ventilated room at a constant temperature of about 22° C., controlled relative humidity of about 60% and appropriate lighting (day/night, 12/12 hours). During the experimental period, the animals were fed a standard laboratory rodent mix. Rats were deprived of food 12 hours prior to the first measurement of blood glucose levels, while constant access to water was maintained. On the day of the experiment, the rats were weighed and fasting blood glucose measurements were taken, via a scalpel incision at the tip of the tail. Next, the animals received aqueous solutions of plant extracts, Acarbose, which served as a positive control (PC) or water, which served as a negative control (NC) at pre-defined quantities via a gastric tube. All the plant extracts were provided by […] Investment in a solution form, and were administered according to the following doses: • white mulberry extract (mulberry): 120 mg per 1 kg body weight • bean extract: 100 mg per 1 kg body weight • green coffee extract (coffee): 20 mg per 1 kg body weight • bitter melon extract (melon): 150 mg per 1 kg body weight • pomelo extract: 100 mg per 1 kg body weight • acarbose preparation: 35 mg per 1 kg body weight • arabinose preparation: 25 mg per 1 kg body weight The extract solutions were prepared so as the amount of liquid administered to a sample animal weighing 350 g was 1 mL. Water was administered to the control group in the same manner/volume. […] Statistical analysis using Student's t-test was performed for proper interpretation of results. Each result obtained for a particular product was compared to the analogous result obtained in the negative control (water) group.

male Wistar rats [2] = assay: Glucose tolerance test (sucrose or starch) in rats after plant extract combinations I-III (Example 2); assay type: in vivo, rat
Method: Each study group consisted of 10 rats. Rats were kept in individual cages in a ventilated at a constant temperature of about 22° C., controlled relative humidity of about 60% and appropriate lighting (day/night, 12/12 hours). During the experimental period, rats were fed the standard laboratory rodent mix. Rats were deprived of food 12 hours prior to the first measurement of blood glucose levels, while constant access to water was maintained. On the day of the experiment, rats were weighed and fasting blood glucose measurements were taken, via a scalpel incision at the tip of the tail. Next, rats were administered water (negative control), acarbose (positive control) or aqueous solutions of pre-defined combinations of plant extracts, as follows: • acarbose preparation: 35 mg per 1 kg body weight • combination I: white mulberry extract (120 mg per 1 kg body weight)+ bean extract (100 mg per 1 kg body weight)+ green coffee extract (20 mg per 1 kg body weight). • combination II: white mulberry extract (120 mg per 1 kg body weight)+ green coffee extract (20 mg per 1 kg body weight)+ arabinose preparation (25 mg per 1 kg body weight). • combination III: white mulberry extract (120 mg per 1 kg body weight)+ bean extract (100 mg per 1 kg body weight)+ green coffee extract (20 mg per 1 kg body weight)+ arabinose preparation (25 mg per 1 kg body weight). The solutions of the extracts were prepared so that the volume of liquid administered to an animal weighing 350 g was 1 mL. Water was administered to the control group in a similar manner. […] Statistical analysis using Student's t-test was performed for proper interpretation of results. Each result obtained for a particular product was compared to the analogous result obtained in the negative control (water) group. Results are presented in Table 2, below and in FIGS. 5A-5B.

[3] = GLUCOSE load (50% glucose solution), 0 min (fasting)
[4] = STARCH load (40% starch solution), 0 min (fasting)
[5] = SUCROSE load (50% sucrose solution), 0 min (fasting)

In the case of C[C@H]1O[C@H](O[C@H]2[C@H](O)[C@@H](O)[C@@H](O[C@H]3[C@H](O)[C@@H](O)C(O)O[C@@H]3CO)O[C@@H]2CO)[C@H](O)[C@@H](O)[C@@H]1N[C@H]1C=C(CO)[C@@H](O)[C@H](O)[C@H]1O (some centres unmarked) [Acarbose], the blood glucose level (male Wistar rats [1]; [3]) is reported as 95.6 ± 6.37 mg/dL, the blood glucose level (male Wistar rats [1]; GLUCOSE load, 15 min) is reported as 168.9 ± 16.33 mg/dL and the blood glucose level (male Wistar rats [1]; GLUCOSE load, 30 min) is reported as 163.3 ± 22.35 mg/dL. The blood glucose level (male Wistar rats [1]; GLUCOSE load, 60 min) was 158.0 ± 12.91 mg/dL, the blood glucose level (male Wistar rats [1]; GLUCOSE load, 90 min) was 157.6 ± 10.20 mg/dL and the blood glucose level (male Wistar rats [1]; GLUCOSE load, 120 min) was 137.7 ± 10.07 mg/dL. The blood glucose level (male Wistar rats [1]; GLUCOSE load, 180 min) was 106.8 ± 8.59 mg/dL, the blood glucose level (male Wistar rats [1]; [4]) was 93.5 ± 6.36 mg/dL and the blood glucose level (male Wistar rats [1]; STARCH load, 15 min) was 120.0 ± 14.97 mg/dL. The blood glucose level (male Wistar rats [1]; STARCH load, 30 min) was 114.9 ± 14.48 mg/dL, the blood glucose level (male Wistar rats [1]; STARCH load, 60 min) was 100.1 ± 7.28 mg/dL and the blood glucose level (male Wistar rats [1]; STARCH load, 90 min) was 95.5 ± 6.17 mg/dL. For the same compound, the blood glucose level (male Wistar rats [1]; STARCH load, 120 min) was 94.6 ± 6.02 mg/dL, the blood glucose level (male Wistar rats [1]; STARCH load, 180 min) was 90.0 ± 7.03 mg/dL and the blood glucose level (male Wistar rats [1]; [5]) was 94.2 ± 7.43 mg/dL. It also gave a blood glucose level (male Wistar rats [1]; SUCROSE load, 15 min) of 120.0 ± 15.80 mg/dL, a blood glucose level (male Wistar rats [1]; SUCROSE load, 30 min) of 114.9 ± 14.48 mg/dL and a blood glucose level (male Wistar rats [1]; SUCROSE load, 60 min) of 100.1 ± 7.28 mg/dL. The blood glucose level (male Wistar rats [1]; SUCROSE load, 90 min) was 95.5 ± 6.17 mg/dL, the blood glucose level (male Wistar rats [1]; SUCROSE load, 120 min) was 94.6 ± 6.02 mg/dL and the blood glucose level (male Wistar rats [1]; SUCROSE load, 180 min) was 90.0 ± 6.21 mg/dL. For the same compound, the blood glucose level (male Wistar rats [2]; STARCH 40% solution 2 g/kg, 0 min (fasting)) was 89.7 ± 6.09 mg/dL, the blood glucose level (male Wistar rats [2]; STARCH, 15 min) was 105.5 ± 9.74 mg/dL and the blood glucose level (male Wistar rats [2]; STARCH, 30 min) was 104.6 ± 4.24 mg/dL. For the same compound, the blood glucose level (male Wistar rats [2]; STARCH, 60 min) was 97.3 ± 7.18 mg/dL, the blood glucose level (male Wistar rats [2]; STARCH, 90 min) was 98.3 ± 6.09 mg/dL and the blood glucose level (male Wistar rats [2]; STARCH, 120 min) was 94.8 ± 6.01 mg/dL. The blood glucose level (male Wistar rats [2]; STARCH, 180 min) was 88.7 ± 4.87 mg/dL, the blood glucose level (male Wistar rats [2]; SUCROSE 50% solution 2 g/kg, 0 min (fasting)) was 84.7 ± 4.81 mg/dL and the blood glucose level (male Wistar rats [2]; SUCROSE, 15 min) was 112.2 ± 8.58 mg/dL. The blood glucose level (male Wistar rats [2]; SUCROSE, 30 min) was 121.1 ± 8.93 mg/dL, the blood glucose level (male Wistar rats [2]; SUCROSE, 60 min) was 116.0 ± 6.87 mg/dL and the blood glucose level (male Wistar rats [2]; SUCROSE, 90 min) was 110.2 ± 6.51 mg/dL. It also gave a blood glucose level (male Wistar rats [2]; SUCROSE, 120 min) of 109.0 ± 4.66 mg/dL and a blood glucose level (male Wistar rats [2]; SUCROSE, 180 min) of 101.1 ± 5.34 mg/dL.
For O=C[C@H](O)[C@@H](O)[C@@H](O)CO [Arabinose, L-Arabinose], the blood glucose level (male Wistar rats [1]; [3]) was 96.0 ± 3.62 mg/dL, the blood glucose level (male Wistar rats [1]; GLUCOSE load, 15 min) was 170.9 ± 19.55 mg/dL and the blood glucose level (male Wistar rats [1]; GLUCOSE load, 30 min) was 157.1 ± 20.27 mg/dL. For the same compound, the blood glucose level (male Wistar rats [1]; GLUCOSE load, 60 min) was 148.2 ± 18.33 mg/dL, the blood glucose level (male Wistar rats [1]; GLUCOSE load, 90 min) was 152.2 ± 11.19 mg/dL and the blood glucose level (male Wistar rats [1]; GLUCOSE load, 120 min) was 137.0 ± 8.96 mg/dL. The blood glucose level (male Wistar rats [1]; GLUCOSE load, 180 min) was 111.6 ± 14.42 mg/dL, the blood glucose level (male Wistar rats [1]; [4]) was 90.9 ± 5.92 mg/dL and the blood glucose level (male Wistar rats [1]; STARCH load, 15 min) was 116.3 ± 8.88 mg/dL. The blood glucose level (male Wistar rats [1]; STARCH load, 30 min) was 123.5 ± 12.49 mg/dL, the blood glucose level (male Wistar rats [1]; STARCH load, 60 min) was 110.9 ± 7.28 mg/dL and the blood glucose level (male Wistar rats [1]; STARCH load, 90 min) was 111.5 ± 4.19 mg/dL. The blood glucose level (male Wistar rats [1]; STARCH load, 120 min) was 106.3 ± 6.54 mg/dL, the blood glucose level (male Wistar rats [1]; STARCH load, 180 min) was 100.1 ± 6.33 mg/dL and the blood glucose level (male Wistar rats [1]; [5]) was 94.7 ± 7.31 mg/dL. For the same compound, the blood glucose level (male Wistar rats [1]; SUCROSE load, 15 min) was 135.4 ± 14.68 mg/dL, the blood glucose level (male Wistar rats [1]; SUCROSE load, 30 min) was 132.9 ± 15.65 mg/dL and the blood glucose level (male Wistar rats [1]; SUCROSE load, 60 min) was 132.9 ± 9.06 mg/dL. For the same compound, the blood glucose level (male Wistar rats [1]; SUCROSE load, 90 min) was 131.7 ± 7.55 mg/dL, the blood glucose level (male Wistar rats [1]; SUCROSE load, 120 min) was 125.4 ± 6.52 mg/dL and the blood glucose level (male Wistar rats [1]; SUCROSE load, 180 min) was 123.0 ± 7.25 mg/dL.
